Assay results as given in US20240165112A1, “THERAPY FOR THE TREATMENT OF CANCER” (Bristol-Myers Squibb Company, priority 2022, published 2024).

Columns and labels:
[1] = test system: TNC, ACTA2, PAI-1 transcripts in lung cancer-associated fibroblasts (CAF); assay: TGF-β-induced gene transcription, fibroblast activation markers (RT-PCR); format: cell-based, human
Method: FIGS. 9A-9C illustrates the effect of Compound 1 on Transcriptional Markers of Fibroblast Activation in Lung Cancer Associated Fibroblasts Treated with TGF-β. […] Lung cancer-associated fibroblasts (CAF, black bars) were treated with 10 ng/mL TGF-β after 1-hour pre-incubation with a range of Compound 1 concentrations, and cells were lysed 24 hours later. Indicated gene transcripts were assessed by RT-PCR relative to GAPDH. Data were normalized to expression after TGF-β-treatment in the presence of only DMSO. Data are presented as mean of 3 biological replicates, and error bars indicate standard deviation. The graphs are representative of at least 2 independent experiments. *P<0.05; ** P<0.01, ***P<0.001; ****P<0.0001 by student's t-test. Abbreviations: ACTA2, smooth muscle actin; CAF, cancer associated fibroblasts; DMSO, dimethyl sulfoxide; GAPDH, glyceraldehyde-3-phosphate dehydrogenase; NHLF, normal lung human fibroblasts; PAI-1, plasminogen activator inhibitor 1; RNA, ribonucleic acid; RT-PCR, reverse transcription polymerase chain reaction; […], transforming growth factor beta; TNC, tenascin C.
Cells were seeded (75,000 NHLF and lung CAF cells) into 12 well plates with RPMI+10% FBS and allowed to adhere overnight at 37° C., 5% CO2. After one day of serum starvation, cells were pre-treated for 1 hour with DMSO or Compound 1 at 30 μM, 10 μM, 3 μM, 1 μM, or 0.3 μM and then stimulated with 10 ng/mL TGF-β. The 24-hour Compound 1 treated samples were harvested for ribonucleic acid (RNA) extraction.
Cells were directly lysed in Qiagen™ Buffer RLT Plus with 1% 2-Mercaptoethanol added. Total RNA from tumor samples and cell lines was isolated using Qiagen™ AllPrep® DNA/RNA 96 Kit according to manufacturer's protocol. Isolated RNA was analyzed with NanoDrop™ ONE Spectrophotometer for concentration. The RNA integrity was also analyzed on Agilent TapeStation 4200.
Complimentary deoxyribonucleic acid (cDNA) was prepared by using Invitrogen™ SuperScript™ III First-Strand Synthesis SuperMix for qRT-PCR. Up to 1 μg of RNA was prepared according to manufacturer's protocol, using Applied Biosystems™ Veriti™ 96-well thermal cycler. The reverse transcription (RT) program used for cDNA synthesis: • 1. 25° C., 10 minutes • 2. 50° C., 30 minutes • 3. 85° C., 5 minutes • 4. Add E. Coli RNase H, 37° C., 20 minutes • 5. Hold at 4° C. Quantitative Reverse Transcription Polymerase Chain Reaction (qRT-PCR).
The cDNA was diluted 1:3 fold in nuclease-free water for quantitative polymerase chain reaction (qPCR) setup. Human and mouse TaqMan™ assays for targeted genes were ordered through Applied Biosystems™. TaqMan™ assay selection was based on manufacturer's recommendation. The qRT-PCR was set up using Applied Biosystems™ TaqMan™ Fast Advanced Master Mix according to manufacturer's protocol. The qRT-PCR was run on QuantStudio™ 12 Flex with fast run mode: • 1. 95° C., 20 seconds • 2. 95° C., 1 second • 3. 60° C., 20 seconds • 4. Repeat steps 2-3, 39 times
The qPCR data was analyzed, and all cycle threshold (Ct) values were normalized to glyceraldehyde-3-phosphate dehydrogenase (GAPDH) (ΔCt). Analysis was plotted and presented using GraphPad Prism (GraphPad, Version 8.4.1, San Diego, CA).
The levels of phospho-c-Jun in NHLF and non-small cell lung CAF in response to TGF-β in the presence of DMSO or varying concentrations of Compound 1 were summarized in FIG. 7. Cells were treated with DMSO or Compound 1 for 1 hour prior to treatment with 10 ng/mL TGF-β for an additional 2 hours. Phospho-c-Jun levels were determined by western blot analysis and were normalized to DMSO treated samples. […] The relative expression of fibroblast activation markers in NHLF and lung CAF in response to TGF-β in the presence of DMSO or varying concentrations of Compound 1 were summarized in FIGS. 8A-8C and FIGS. 9A-9C. Cells were treated with DMSO or Compound 1 for 2 hours prior to treatment with 10 ng/mL TGF-β. The RNA expression was assessed 24 hours after TGF-β treatment.

[2] = test system: Eleven patient-derived tumor organoids; assay: 3D clonogenic assay, summary over the organoid panel; format: cell-based, human; details: for median percent colony reduction relative to DMSO: 11 organoid cultures
Method: Five tumor cell lines (4T1.2, A549, EMT6, NCI-H460, and HT29) were treated with a range of paclitaxel or 5-FU concentrations in the presence of dimethlylsulfoxide (DMSO), 5 μM Compound 1, or 20 μM Compound 1. Cells were imaged 4 days after treatment and percent confluence was assessed by image quantification. EC50 values for cell confluence were used to assess chemotherapy potency. Eleven patient-derived tumor organoids (MAXFTN449, MAXFTN2990, PAXF1657, PAXF2131, CXF1256, CXF2129, CXF2061, LXFE2478, LXFE690, LXFA677, LXFA644) were seeded in a 3D matrix and treated with a range of paclitaxel, 5-FU, SN38, Gemcitabine, oxaliplatin, and carboplatin concentrations in the presence of DMSO, 5 μM Compound 1, or 20 μM Compound 1. After 8 to 13 days in culture, colonies were stained, imaged, and counted. A dose response curve was generated for chemotherapy alone or chemotherapy in combination with 5 or 20 μM Compound 1. Combination activity was defined as a percentage of the area under the chemotherapy dose response curve (cAUC) for Compound 1 combination groups compared to the cAUC of chemotherapy alone.
The clonogenic assay was carried out in a 96 well plate format using ultra low attachment plates. For each test, plates were prepared as follows: each test well contained a layer of semi-solid medium with tumor cells (50 μL), and a second layer of medium supernatant with or without test compound (100 μL). The cell layer consisted of […] to 12.5×10^3 tumor cells per well, which were seeded in 50 μL/well cell culture medium (IMDM, supplemented with 20% (v/v) fetal bovine serum, 50 μg/mL gentamicin, and 0.4% (w/v) agar). After 24 hours, the soft-agar layer was covered with 90 μL of the same culture medium without agar, and 10 μL of control medium or test compound after serial dilution in DMSO for the duration of the experiment (continuous exposure, 100 μL drug overlay).
After 8 to 13 days in culture, colonies were stained, imaged, and counted.

[3] = CAF stimulated with TGFβ, 10 μM Compound 1
[4] = CAF, 30 μM Compound 1, 10 ng/mL TGF-β, 24 hours

C[C@@H]1CC[C@@H](Nc2nc(NC(C)(C)C)ncc2C(N)=O)C[C@H]1O [Compound 1, 2-(tert-butylamino)-4-((1R,3R,4R)-3-hydroxy-4-methylcyclohexylamino)-pyrimidine-5-carboxamide]
PAI-1 reduced relative to DMSO [1, 3]: PAI-1, ACTA2, and TNC were reduced 71%,
TNC reduced relative to DMSO [1, 3]: 77%
TNC induction, reduction from peak activation relative to baseline ([1]; CAF, 0.3 μM Compound 1, 10 ng/mL TGF-β, 24 hours): 34%
PAI-1 induction, reduction from peak activation relative to baseline ([1]; CAF, 1 μM Compound 1, 10 ng/mL TGF-β, 24 hours): 25%
ACTA2 induction, reduction from peak activation relative to baseline ([1]; CAF, 10 μM Compound 1, 10 ng/mL TGF-β, 24 hours): 71%
ACTA2 expression [1, 4]: lower than samples in the absence of TGF-β
PAI-1 induction, reduction from peak activation relative to baseline [1, 4]: 98%
TNC induction, reduction from peak activation relative to baseline [1, 4]: 97%
organoid cultures with an average percent colony reduction greater than 20% ([2]; 5 μM Compound 1): 8 out of 11
median percent colony reduction relative to DMSO ([2]; 5 μM Compound 1): 39%
organoid cultures with an average percent colony reduction greater than 20% ([2]; 20 μM Compound 1): 10 out of 11
median percent colony reduction relative to DMSO ([2]; 20 μM Compound 1): 34%
